How the values were obtained:
Anopheles stephensi [1] = assay: whole plant or invertebrate; settings: Anopheles stephensi, 48 h
Summary of the method: (§1)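 Non-blood-fed adult females (2–5 days old), ten per well, were placed on dried ethanol deposits of the test compound at a defined concentration and fed 10% sucrose. Mortality was scored at 48 hours as the mean of two replicates.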

Aedes aegypti [2] = assay: whole plant or invertebrate; settings: Aedes aegypti, 48 h
Summary of the method: as §1

[3] = system: Aedes aegypti (Yellow fever mosquito); assay: whole plant or invertebrate; settings: Aedes aegypti
Protocol: […] Once the deposits were dry, five non-blood fed adult female Aedes aegypti (between two to five days old) were added to each well, and sustained with a 10% sucrose solution in a cotton wool plug. Assessment of the knockdown after 1 hour, and mortality after 48 hours was carried out.
(§2) In case of multiple tests, the mean value is reported.

Ae. Aegypti New Orleans = assay: Example B4: cross resistance study, 6-well plate; format: in vivo
Protocol: (§3) In each study, a set of plates were infested with a known insecticide susceptible strain of mosquitoes from the same genera as the resistant strains.
(§4) Assessment of the knockdown after 60 minutes and mortality after 24 hours was carried out. Each treatment was replicated a minimum of four times, with the mean knockdown or mortality recorded.
(§5) A comparison of the knockdown and mortality of the resistant strain of mosquitoes was made to that of the susceptible to identify evidence of cross resistance.

An. Arabiensis Moz sus = assay: Example B4: cross resistance study, 6-well plate; format: in vivo
Protocol: as §3, §4, §5

An. Gambiae Tiassalé [4] = assay: Example B4: cross resistance study, 6-well plate; format: in vivo
Protocol: as §3, §4, §5

An. Arabiensis Ndjamina = assay: Example B4: cross resistance study, 6-well plate; format: in vivo
Protocol: as §3, §4, §5

Ae. aegypti Caymon = assay: Example B4: cross resistance study, 6-well plate; format: in vivo
Protocol: as §3, §4, §5

An. Gambiae Kisumu rdl = assay: Example B4: cross resistance study, 6-well plate; format: in vivo
Protocol: as §3, §4, §5

An. Gambiae Kisumu sus [5] = assay: Example B4: cross resistance study, 6-well plate; format: in vivo
Protocol: as §3, §4, §5

An. stephensi [6] = assay: Example B4: cross resistance study, 6-well plate; format: in vivo
Protocol: as §3, §4, §5

Anopheles stephensi [7] = assay: Example B7: evaluation of insecticide impregnated polymer surfaces; format: in vivo; settings: AI content 2 wt %, after one hour
Description: (§6) Preparation of polymeric sheets: Certain methoxyacrylate were Impregnated into three polymers: LDPE (low density polyethylene), HDPE (high density polyethylene) and PP (polypropylene) in different concentrations by mixing the respective polymer with a compound at high temperatures and the resultant polymeric material were then mould into thin discs or plaques.
(§7) Twenty four hours prior to the relevant assessment intervals, three to five day old non-blood fed adult mosquitoes were taken from the culture and lightly anaesthetised with carbon dioxide. Ten females were selected and placed in a 250 ml plastic cup, retained with a net lid, provided with a 10% sucrose solution soaked in a cotton wool bung and held under culturing environmental conditions.
(§8) After twenty four hours, impregnated polymer sheets (measuring about 150 mm in diameter and about 0.1 mm in thickness) were removed from storage and wrapped around the glazed side of an 11 cm ceramic tile and held in place with an elastic band. A cup of the pre-selected mosquitoes were again lightly anaesthetised with carbon dioxide and transferred from the holding cup to the base of a 9 cm plastic Petri dish. The relevant impregnated polymer sheet was placed over the Petri dish and held in place with an elastic band. Once the mosquitoes had recovered from the anaesthetic, ca. 1 minute, the impregnated polymer sheet was placed on a holding rack, such that treated side was at an angle of […] to the horizontal.
(§9) After one hour an assessment of mosquito knockdown was made. A mosquito was said to be knocked down if it was unable to right itself once it had fallen over. The mosquitoes were lightly anaesthetised again, and removed from the Petri dish exposure chamber and returned to the holding cups. The mosquitoes were supplied with a 10% sucrose solution soaked in a cotton wool bung and held under culturing environmental conditions. An assessment of mortality was made 24 hours after exposure. A mosquito was said to be dead if it is unable to right itself once it had fallen over.

Aedes aegypti [8] = assay: as above; format: in vivo; settings: AI content 2 wt %, polymer 4 to 6 weeks old, after one hour
Description: as §6, §7, §8, §9

[9] = system: Anopheles stephensi (Indian malaria mosquito); assay: whole plant or invertebrate; settings: Anopheles stephensi
Protocol: […] Once the deposits were dry, five non-blood fed adult female Anopheles stephensi (between two to five days old) were added to each well, and sustained with a 10% sucrose solution in a cotton wool plug. Assessment of the knockdown after 1 hour, and mortality after 48 hours was carried out.
as §2

An. Gambiae Tiassalé [10] = assay: Example B5: bottle based cross resistance study (CDC bottle assay); format: in vivo
Protocol: (§10) Based on the “CDC bottle assay” (described at http://www.cdc.gov/malaria/resources/pdf/fsp/ir_manual/ir_cdc_bioassay_en.pdf) 1 ml of ethanol containing a test compound at a defined concentration was added to a 250 ml glass bottle and the bottles were placed on a rolling table to coat the inner surfaces as the solvent evaporated. Once dry, twenty five non-blood fed adult female mosquitoes of the appropriate species and strains (each three day old) were aspirated from the stock culture and gently blown into the exposure bottles. The lid of the bottle was replaced and the bottle placed upright out of direct sun light under standard culture conditions, nominally 28C and 60-80% relative humidity.
(§11) A stopwatch was started, and the assessment of the knock-down were made after 15 minutes and 60 minutes. A mosquito was said to be knocked down if it was unable to stand, following the CDC definition. The bottles were replaced in an upright position when not being assessed.
(§12) After one hour the mosquitoes were carefully removed from the bottle with an aspirator and placed in a recovery cup. The mosquitoes were supplied with a 10% sucrose solution on a cotton wool bung, and stored under culture conditions. Assessments of the mortality were made after 24 hours.
(§13) Each treatment was replicated a minimum of four times, with the mean knockdown or mortality recorded. In each study, a set of bottles was infested with a known insecticide susceptible strain of mosquitoes from the same genera as the resistant strains.

An. Gambiae Kisumu sus [11] = assay: as above; format: in vivo
Protocol: as §10, §11, §12, §13

An. stephensi [12] = assay: as above; format: in vivo
Protocol: as §10, §11, §12, §13

For CCC(=N\OC)/C(C)=N/OCc1ccccc1/C(=C\OC)C(=O)OC [Compound 4, Methyl(E)-3-methoxy-2-[2-[[(E)-[(2E)-2-methoxyimino-1-methyl-butylidene]amino]-oxymethyl]phenyl]prop-2-enoate], which mortality at 5 ppm (Anopheles stephensi [1]) is on record?
Its mortality at 5 ppm is 98%.

What about the mortality at 5 ppm (Aedes aegypti [2]) of the same compound?
The mortality at 5 ppm was 78%.

And the pest or weed control at 20 ppm ([3]; 1 h, read-out: Knockdown)?
The pest or weed control at 20 ppm was 100%.

What about the mortality at 20 ppm ([3]; 48 h) of the same compound?
Its mortality at 20 ppm is 100%.

What about the Knockdown (Ae. Aegypti New Orleans; 2.00 ppm, after 60 minutes, New Orleans) of the same compound?
The Knockdown was 75%.

What about the mortality at 2 ppm (Ae. Aegypti New Orleans; Aedes aegypti, 24 h) of the same compound?
Its mortality at 2 ppm is 100%.

What about the Knockdown (An. Arabiensis Moz sus; 2.00 ppm, after 60 minutes, Moz sus) of the same compound?
The Knockdown was 0%.

And the mortality at 2 ppm (An. Arabiensis Moz sus; Anopheles arabiensis, 24 h)?
Its mortality at 2 ppm is 95%.

And the Knockdown (An. Gambiae Tiassalé [4]; 2.00 ppm, after 60 minutes, Tiassalé)?
The Knockdown was 70%.

And the mortality at 2 ppm (An. Gambiae Tiassalé [4]; Anopheles gambiae, 24 h)?
Its mortality at 2 ppm is 100%.

And the Knockdown (An. Arabiensis Ndjamina; 2.00 ppm, after 60 minutes, Ndjamina)?
The Knockdown was 100%.

And the mortality at 2 ppm (An. Arabiensis Ndjamina; Anopheles arabiensis, 24 h)?
The mortality at 2 ppm was 100%.

And the Knockdown (Ae. aegypti Caymon; 2.00 ppm, after 60 minutes, Caymon)?
Its Knockdown is 45%.

And the mortality at 2 ppm (Ae. aegypti Caymon; Aedes aegypti, 24 h)?
The mortality at 2 ppm was 90%.

And the Knockdown (An. Gambiae Kisumu rdl; 2.00 ppm, after 60 minutes, Kisumu rdl)?
The Knockdown was 30%.

And the mortality at 2 ppm (An. Gambiae Kisumu rdl; Anopheles gambiae, 24 h)?
The mortality at 2 ppm was 100%.

And the Knockdown (An. Gambiae Kisumu sus [5]; 2.00 ppm, after 60 minutes, Kisumu sus)?
The Knockdown was 67%.

What about the mortality at 2 ppm (An. Gambiae Kisumu sus [5]; Anopheles gambiae, 24 h) of the same compound?
The mortality at 2 ppm was 95%.

What about the Knockdown (An. stephensi [6]; 2.00 ppm, after 60 minutes, An. stephensi) of the same compound?
The Knockdown was 95%.

And the mortality at 2 ppm (An. stephensi [6]; Anopheles stephensi, 24 h)?
The mortality at 2 ppm was 100%.

What about the knock-down (Anopheles stephensi [7]; HDPE, polymer 4 to 6 weeks old) of the same compound?
The knock-down was 93%.

What about the knock-down (Anopheles stephensi [7]; HDPE, polymer 6 to 8 weeks old) of the same compound?
The knock-down was 77%.

And the knock-down (Anopheles stephensi [7]; LDPE, polymer 4 to 6 weeks old)?
Its knock-down is 87%.

And the knock-down (Anopheles stephensi [7]; LDPE, polymer 6 to 8 weeks old)?
The knock-down was 70%.

And the knock-down (Anopheles stephensi [7]; PP, polymer 4 to 6 weeks old)?
The knock-down was 100%.

What about the knock-down (Anopheles stephensi [7]; PP, polymer 6 to 8 weeks old) of the same compound?
The knock-down was 90%.

And the knock-down (Aedes aegypti [8]; HDPE)?
The knock-down was 53%.

And the knock-down (Aedes aegypti [8]; LDPE)?
The knock-down was 63%.

And the knock-down (Aedes aegypti [8]; PP)?
Its knock-down is 63%.

And the pest or weed control at 20 ppm ([9]; 1 h, read-out: Knockdown)?
The pest or weed control at 20 ppm was 80%.

And the mortality at 20 ppm ([9]; 48 h)?
The mortality at 20 ppm was 100%.

And the “Knockdown (%) at 15 mins” value (An. Gambiae Tiassalé [10]; 20 ppm, bottle, Tiassalé)?
Its value is 17%.

What about the “Knockdown (%) at 60 mins” value (An. Gambiae Tiassalé [10]; 20 ppm, bottle, Tiassalé) of the same compound?
Its value is 96%.

What about the mortality at 20 ppm (An. Gambiae Tiassalé [10]; Anopheles gambiae) of the same compound?
Its mortality at 20 ppm is 77%.

What about the “Knockdown (%) at 15 mins” value (An. Gambiae Kisumu sus [11]; 20 ppm, bottle, Kisumu sus) of the same compound?
The value was 48%.

And the “Knockdown (%) at 60 mins” value (An. Gambiae Kisumu sus [11]; 20 ppm, bottle, Kisumu sus)?
The value was 100%.

What about the mortality at 20 ppm (An. Gambiae Kisumu sus [11]; Anopheles gambiae) of the same compound?
The mortality at 20 ppm was 100%.

What about the “Knockdown (%) at 15 mins” value (An. stephensi [12]; 20 ppm, bottle, An. stephensi) of the same compound?
The value was 10%.

And the “Knockdown (%) at 60 mins” value (An. stephensi [12]; 20 ppm, bottle, An. stephensi)?
Its value is 100%.

And the mortality at 20 ppm (An. stephensi [12]; Anopheles stephensi)?
The mortality at 20 ppm was 80%.

Source: US11882828B2, “Mosquito vector control compositions, methods and products utilizing same” (priority 2015, dated 2024)
